The text below walks through data of patent publication US20230355625A1, “METHODS OF TREATMENT” (INTRA-CELLULAR THERAPIES, INC., priority 2019, published 2023).

Data set [1] deals with healthy human individuals. The experiment in a line: BOLD-fMRI during a stop signal task. The data set is classed as in vivo. The protocol: The Stop Signal task is a way to measure behavioral and neural responses to inhibitory processing.
Patients were again administered single oral doses of placebo, Compound 1 at 1 mg or 10 mg. Brain activity was then measured during BOLD-fMRI scanning at 3 Tesla. In this study, participants are presented with a visual and/or audio cue and two buttons. The subjects are instructed to press the left button as quickly as possible when an ‘X’ appears on a screen and the right button when an ‘O’ appears. Participants also are instructed not to press either button when they hear a tone, which constitute the Stop trials. There are two different kinds of Stop trials presented during the task, namely easy and hard trials. Easy trials consist of the tone cue being presented simulataneously with the visual ‘X’ or ‘O’ making it easier to suppress a response. Hard trials consist of the tone being presented after a brief delay, making it harder to process the tone and suppress a response.
This consistency provides confidence in the findings.

Data set [2] deals with healthy human individuals. The experiment in a line: BOLD-fMRI during the extinction phase of a fear conditioning task. In kind it is in vivo. To be noted: single oral doses of 1 mg or 10 mg vs placebo; FIG. 1. As for the experimental part:
A randomized, double-blind, placebo-controlled, within-subjects study was carried out with healthy human individuals to determine whether the PDE1 inhibitors according to the present disclosure induce changes in blood oxygen level dependent functional magnetic resonance imaging (BOLD-fMRI) signals in the dorsal anterior insula (dAI) during the extinction phase of a fear conditioning task. To test these effects, Compound 1 was administered to healthy human patients. Compound 1 (ITI-214) is shown below:
The insula is a small brain region that is essential for the mind-body connection, where body sensations are translated into emotion. Anterior insula reactivity has been associated with anticipating significant events, and increased anterior insula activity has been associated with anxiety. Conditioning, including fear conditioning and extinction, is a brain activity during learning. […]
Patients were administered single oral doses of placebo, or doses of Compound 1 at 1 mg or 10 mg. Brain activity was then measured during BOLD-fMRI scanning at 3 Tesla. […] Region-of-interest (ROI) analyses for the dAI, IFG, and other prespecified regions were computed using linear mixed models in R. The brain's response is measured in each subject by fMRI scans, which is summarized in FIG. 1.

Data set [3] has as its system preclinical models. Briefly: preclinical models of cognitive performance. In kind it is in vivo.
Data set [4] concerns healthy humans. Conditions: cited from earlier work; for fear extinction learning: humans.
For data set [5], the system named is animal models. Conditions: cited from earlier work.
The conditions of data set [6]: in vivo; cited from earlier work.

`CN1C(=O)c2c(nn(Cc3ccc(-c4cccc(F)n4)cc3)c2Nc2ccccc2)N2C1=N[C@@H]1CCC[C@@H]12` [Compound 1]: the “activity in the dorsolateral prefrontal cortex during stop signal task” value in data set [1] (FIG. 3) is “increased activity”. Besides, the “activity in the dorsal anterior cingulate cortex during stop signal task” value in data set [1] (FIG. 4) is “increased activity”. Moreover, the “activity in the anterior insula during stop signal task” value in data set [1] (FIG. 5) is recorded as “increased activity”. In data set [1] (human, 1 mg where stated), the “activation in the frontal gyrus” value is “increased activation”. In data set [1] (single oral dose 1 mg, FIG. 2), the “activation in the inferior frontal gyrus during correctly inhibited Stop trials, easy trials (correcteasy)” value is given as “significantly increased activation” and the “activation in the inferior frontal gyrus during correctly inhibited Stop trials, hard trials (correcthard)” value is recorded as “significantly increased activation”. Also, in data set [2], the “insula activity (dorsal anterior insula BOLD-fMRI signal) during fear extinction” value is “slightly attenuated”. In data set [3], the cognitive performance entry is listed as “improved cognitive performance” and the psychomotor hyperactivity entry is “without psychomotor hyperactivity”.
Turning to `COC(=O)C(c1ccccc1)C1CCCCN1` (stereo not drawn) [methylphenidate], the “effect on the bilateral anterior insula during a fear extinction task” value in data set [4] (healthy humans) was “attenuating effect”. Also, in data set [4], the fear extinction learning result was “enhancement of fear extinction learning”. Also, in data set [5], the “extinction of contextual fear (cognitive function)” value is “enhanced extinction of contextual fear”. Also, in data set [6], the “activation in the frontal gyrus during a stop signal task” value is “increase activation” and the “inhibitory performance during a stop signal task” value is on record as “improve inhibitory performance”.
In the case of `NC(=O)C[S+]([O-])C(c1ccccc1)c1ccccc1` (stereo not drawn) [modafinil], the fear extinction learning entry in data set [4] is “enhancement of fear extinction learning”. The “extinction of contextual fear (cognitive function)” value in data set [5] is listed as “enhanced extinction of contextual fear”. Further, in data set [6], the “activation in the frontal gyrus during a stop signal task” value is reported as “increase activation” and the “inhibitory performance during a stop signal task” value is given as “improve inhibitory performance”.
